Measurements from patent US7074190B2, “Non-invasive apparatus system for monitoring drug hepatoxicity and uses thereof” (priority 2002, dated 2006).

Assays:
adult dogs [1] = assay: Artery blood pressure waveform analysis before and after taking the drug, dog experiment; assay type: in vivo; details: Code B dog, 1,200 mg/kg subcutaneous injection
Source text: The definition of parameter altered amount is: (the parameter value after taking the drug—the parameter value before taking the drug)/the parameter value before taking the drug *100%

adult dogs [2] = assay: Blood test for drug-induced hepatotoxicity, dog experiment
Protocol: Two adult dogs weighing 12 and 15 kg were used. One (coded A) of them received 500 mg/kg of body weight of acetaminophen oral solution (dissolved in water); and the other one (coded B) received a higher concentration (1,200 mg/kg of body weight) of acetaminophen via subcutaneous injection. After Nembutal was injected and the respirator was put on, the hair on the front legs of the dogs was shaved and a blood pressure waveform sensor was inserted by operation. The waveform of artery blood pressure waveform on brachial position was continuously recorded and analyzed by a computer with a frequency of 100 data per minute. After surgery and before the drug was orally taken or injected, the blood pressure waveform of each dog was measured for two hours as the baseline. After the drug was orally taken or injected, the blood pressure waveform was continuously monitored for analyzing the hepatotoxicity induced by the drug, and blood samples were periodically taken from a tube inserted into the artery for determining the level of hepatotoxicuty.

[3] = before and after taking the drug (12 hours)
[4] = Code A dog, 500 mg/kg oral, 1 hour after the drug was administered
[5] = Code A dog, 500 mg/kg oral, 6 hours after the drug was administered
[6] = Code A dog, 500 mg/kg oral, 12 hours after the drug was administered
[7] = Code B dog, 1,200 mg/kg subcutaneous injection, 1 hour after the drug was administered
[8] = Code B dog, 1,200 mg/kg subcutaneous injection, 6 hours after the drug was administered
[9] = Code B dog, 1,200 mg/kg subcutaneous injection, 12 hours after the drug was administered

SMILES: CC(=O)Nc1ccc(O)cc1 [acetaminophen]
- Pressure parameter P5 = Gg (adult dogs [1]; 12 hours after taking the drug): P5 = Gg = 16 mmHg
- Ratio parameter RA1 = A6/A5 (adult dogs [1]; 12 hours after taking the drug): RA1 = A6/A5 = 0.87
- Ratio parameter RA2 = A5/A7 (adult dogs [1]; 12 hours after taking the drug): RA2 = A5/A7 = 0.53
- Ratio parameter RA3 = A6/A7 (adult dogs [1]; 12 hours after taking the drug): RA3 = A6/A7 = 0.47
- Ratio parameter RP1 = Ff/Bb (adult dogs [1]; 12 hours after taking the drug): RP1 = Ff/Bb = 0.42
- Ratio parameter RT1 = ab/ag (adult dogs [1]; 12 hours after taking the drug): RT1 = ab/ag = 0.17
- Ratio parameter RT2 = ae/ag (adult dogs [1]; 12 hours after taking the drug): RT2 = ae/ag = 0.42
- Ratio parameter RT3 = af/ag (adult dogs [1]; 12 hours after taking the drug): RT3 = af/ag = 0.63
- Superficial measure parameter A1 = AabB (adult dogs [1]; 12 hours after taking the drug): A1 = AabB = 2.44 sec. * mmHg
- Superficial measure parameter A2 = BbeE (adult dogs [1]; 12 hours after taking the drug): A2 = BbeE = 2.58 sec. * mmHg
- Superficial measure parameter A3 = EefF (adult dogs [1]; 12 hours after taking the drug): A3 = EefF = 1.68 sec. * mmHg
- Superficial measure parameter A4 = FfgG (adult dogs [1]; 12 hours after taking the drug): A4 = FfgG = 2.70 sec. * mmHg
- Superficial measure parameter A5 = A1 + A2 (adult dogs [1]; 12 hours after taking the drug): A5 = A1 + A2 = 5.02 sec. * mmHg
- Superficial measure parameter A6 = A3 + A4 (adult dogs [1]; 12 hours after taking the drug): A6 = A3 + A4 = 4.38 sec. * mmHg
- Superficial measure parameter A7 = A5 + A6 (adult dogs [1]; 12 hours after taking the drug): A7 = A5 + A6 = 9.40 sec. * mmHg
- Time parameter T1 = ab (adult dogs [1]; 12 hours after taking the drug): T1 = ab = 0.04 second
- Time parameter T2 = be (adult dogs [1]; 12 hours after taking the drug): T2 = be = 0.06 second
- Time parameter T3 = ef (adult dogs [1]; 12 hours after taking the drug): T3 = ef = 0.05 second
- Time parameter T4 = fg (adult dogs [1]; 12 hours after taking the drug): T4 = fg = 0.09 second
- Time parameter T5 = ag (adult dogs [1]; 12 hours after taking the drug): T5 = ag = 0.24 second
- number of parameter altered amounts exceeding 100% (adult dogs [1]; TABLE 8): six
- Oblique angle parameter Altered amount D2 = (Bb-Ee)/be (adult dogs [1]; [3]): D2 = (Bb-Ee)/be = 349%
- Oblique angle parameter Altered amount D3 = (Ff-Ee)/ef (adult dogs [1]; [3]): D3 = (Ff-Ee)/ef = 23%
- Oblique angle parameter Altered amount D4 = (Ff-Gg)/fg (adult dogs [1]; [3]): D4 = (Ff-Gg)/fg = 677%
- Pressure parameter Altered amount P1 = Aa (adult dogs [1]; [3]): P1 = Aa = −85%
- Pressure parameter Altered amount P2 = Bb (adult dogs [1]; [3]): P2 = Bb = −25%
- Pressure parameter Altered amount P3 = Ee (adult dogs [1]; [3]): P3 = Ee = −79%
- Pressure parameter Altered amount P4 = Ff (adult dogs [1]; [3]): P4 = Ff = −65%
- Pressure parameter Altered amount P5 = Gg (adult dogs [1]; [3]): P5 = Gg = −85%
- Ratio parameter Altered amount RA1 = A6/A5 (adult dogs [1]; [3]): RA1 = A6/A5 = 123%
- Ratio parameter Altered amount RA2 = A5/A7 (adult dogs [1]; [3]): RA2 = A5/A7 = 89%
- Ratio parameter Altered amount RA3 = A6/A7 (adult dogs [1]; [3]): RA3 = A6/A7 = −35%
- Ratio parameter Altered amount RP1 = Ff/Bb (adult dogs [1]; [3]): RP1 = Ff/Bb = −51%
- Ratio parameter Altered amount RT1 = ab/ag (adult dogs [1]; [3]): RT1 = ab/ag = 143%
- Ratio parameter Altered amount RT2 = ae/ag (adult dogs [1]; [3]): RT2 = ae/ag = 55%
- Ratio parameter Altered amount RT3 = af/ag (adult dogs [1]; [3]): RT3 = af/ag = 85%
- Superficial measure parameter Altered amount A1 = AabB (adult dogs [1]; [3]): A1 = AabB = −62%
- Superficial measure parameter Altered amount A2 = BbeE (adult dogs [1]; [3]): A2 = BbeE = −85%
- Superficial measure parameter Altered amount A3 = EefF (adult dogs [1]; [3]): A3 = EefF = −72%
- Superficial measure parameter Altered amount A4 = FfgG (adult dogs [1]; [3]): A4 = FfgG = −95%
- Superficial measure parameter Altered amount A5 = A1 + A2 (adult dogs [1]; [3]): A5 = A1 + A2 = −47%
- Superficial measure parameter Altered amount A6 = A3 + A4 (adult dogs [1]; [3]): A6 = A3 + A4 = −61%
- Superficial measure parameter Altered amount A7 = A5 + A6 (adult dogs [1]; [3]): A7 = A5 + A6 = −84%
- Time parameter Altered amount T1 = ab (adult dogs [1]; [3]): T1 = ab = −20%
- Time parameter Altered amount T2 = be (adult dogs [1]; [3]): T2 = be = −54%
- Time parameter Altered amount T3 = ef (adult dogs [1]; [3]): T3 = ef = 0%
- Time parameter Altered amount T4 = fg (adult dogs [1]; [3]): T4 = fg = −80%
- Time parameter Altered amount T5 = ag (adult dogs [1]; [3]): T5 = ag = −64%
- oblique angle parameter Altered amount D1 = (Bb-Aa)/ab (adult dogs [1]; [3]): D1 = (Bb-Aa)/ab = 162%
- oblique angle parameter Altered amount D5 = D1 + D2 (adult dogs [1]; [3]): D5 = D1 + D2 = 211%
- oblique angle parameter Altered amount D6 = D3 + D4 (adult dogs [1]; [3]): D6 = D3 + D4 = 92%
- ALT (SGPT) (adult dogs [2]; [4]): 25 IU/leter
- ASG (SGOT) (adult dogs [2]; [4]): 35 IU/leter
- Total biliflavin (adult dogs [2]; [4]): 0.3 mg/dL
- ALT (SGPT) (adult dogs [2]; [5]): 23 IU/leter
- ASG (SGOT) (adult dogs [2]; [5]): 33 IU/leter
- Total biliflavin (adult dogs [2]; [5]): 0.2 mg/dL
- ALT (SGPT) (adult dogs [2]; [6]): 24 IU/leter
- ASG (SGOT) (adult dogs [2]; [6]): 45 IU/leter
- Total biliflavin (adult dogs [2]; [6]): 0.2 mg/dL
- ALT (SGPT) (adult dogs [2]; [7]): 33 IU/leter
- ASG (SGOT) (adult dogs [2]; [7]): 38 IU/leter
- Total biliflavin (adult dogs [2]; [7]): 0.2 mg/dL
- ALT (SGPT) (adult dogs [2]; [8]): 37 IU/leter
- ASG (SGOT) (adult dogs [2]; [8]): 198 IU/leter
- Total biliflavin (adult dogs [2]; [8]): 0.2 mg/dL
- ALT (SGPT) (adult dogs [2]; [9]): 47 IU/leter
- ASG (SGOT) (adult dogs [2]; [9]): 298 IU/leter
- Total biliflavin (adult dogs [2]; [9]): 0.2 mg/dL
- biliflavin (adult dogs [2]; Code B dog, 1,200 mg/kg subcutaneous injection, acute poisoning experiment): does not raise significantly
- ALT (adult dogs [2]; Code B dog, 1,200 mg/kg subcutaneous injection, after 12 hours): 47 IU/L
- AST (SGOT) (adult dogs [2]; Code B dog, 1,200 mg/kg subcutaneous injection, after 12 hours, baseline 41): 298 IU/liter
- hepatotoxicity shown by blood test results (adult dogs [2]; Code B dog, 1,200 mg/kg via subcutaneous injection): a certain level of hapatotoxicity
